# “And” between values parts separate entries of the source, which are not always exact repeats. Equal values may be shown once.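 In this assay, cells in 96-well plates receive the compound at five concentrations for 48 hours. Endpoints are linearly interpolated between the surrounding concentrations. GI50 is the concentration that inhibits growth by half. TGI denotes the concentration required for complete inhibition of growth.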
# Tested on: UACC-257 melanoma
# Assay: growth of human tumour cells (NCI), 48 h
Compound,GI50 [µM],TGI
CCOC(=O)c1c(CN2CCN(C)CC2)nc2ccc(Cl)cc2c1-c1ccccc1,2.03,3.98 µM
COc1ccccc1NC(=O)C1=C(C)NC(C)=C(C(=O)Nc2ccccc2OC)C1c1ccco1,–,43.4 µM
Cc1ccc(OC(=O)N2C/C(=C\c3ccccc3)C(=O)/C(=C/c3ccccc3)C2)cc1,–,69.5 µM
CCOc1ccc2cc(-c3nn(CC4CCNCC4)c4ncnc(N)c34)ccc2c1,16.8,31.1 µM
O=c1oc2c3ccc4ccccc4c3n(CCN3CCCCC3)c2c2ccccc12,–,> 100 µM
O=c1cccc(Cl)[nH]1,–,> 100 µM
COc1ccccc1C(=O)N(Cc1ccccc1)c1ccc(Cl)c(C(=O)OC(C)C)c1,–,> 88.7 µM
OCCN(CO)CO,–,> 100 µM
CN1CC[C@H](c2c(O)cc(O)c3c(=O)cc(-c4ccccc4Cl)oc23)[C@H](O)C1,0.128,0.91 µM
COc1cccc(-c2nc3sccn3c2-c2ccnc(NCCCNS(=O)(=O)c3ccccc3)c2)c1,3.57,> 100 µM
CC1OC(OC2C(O)C(O)C(O)C(O)C2O)C(N)CC1N=C(N)C(=O)O (centres undefined),–,> 100 µM
C=CC(=O)Nc1cc2c(Nc3ccc(F)c(Cl)c3)ncnc2cc1C#CC(C)(C)N1CCN(C)CC1,3.96,5.56 µM
CSC1=Nc2c(c(C)c(-c3ccccc3)n2COC(CO)CO)C2=NC(=O)CC(C)N12 (centres undefined),> 100,> 100 µM
NCCCN=c1ccc2c3c1c(O)c1c(O)ccc(=O)c1c3[nH]n2CCNCCO,4.32,14.1 µM and 105 µM
C=C1C[C@@H]2O[C@H]3[C@H]4[C@@H](CC[C@@](C)(OC(=O)CCC)[C@H]42)[C@@H](C)C(=O)O[C@@]3(C)CC[C@H]1OO,26.2,76.7 µM

# Tested on: 786-0 renal
# Assay: growth of human tumour cells (NCI), 48 h
Compound,GI50 [µM],TGI
CCOC(=O)c1c(CN2CCN(C)CC2)nc2ccc(Cl)cc2c1-c1ccccc1,7.05,18.8 µM
COc1ccccc1NC(=O)C1=C(C)NC(C)=C(C(=O)Nc2ccccc2OC)C1c1ccco1,–,> 77 µM
Cc1ccc(OC(=O)N2C/C(=C\c3ccccc3)C(=O)/C(=C/c3ccccc3)C2)cc1,–,35.9 µM
CCOc1ccc2cc(-c3nn(CC4CCNCC4)c4ncnc(N)c34)ccc2c1,14.6,28.4 µM
O=c1oc2c3ccc4ccccc4c3n(CCN3CCCCC3)c2c2ccccc12,–,27.9 µM
O=c1cccc(Cl)[nH]1,–,> 100 µM
COc1ccccc1C(=O)N(Cc1ccccc1)c1ccc(Cl)c(C(=O)OC(C)C)c1,–,> 100 µM
OCCN(CO)CO,–,> 100 µM
CN1CC[C@H](c2c(O)cc(O)c3c(=O)cc(-c4ccccc4Cl)oc23)[C@H](O)C1,0.0717,> 10 µM
COc1cccc(-c2nc3sccn3c2-c2ccnc(NCCCNS(=O)(=O)c3ccccc3)c2)c1,6.03,> 100 µM
CC1OC(OC2C(O)C(O)C(O)C(O)C2O)C(N)CC1N=C(N)C(=O)O (centres undefined),–,> 100 µM
C=CC(=O)Nc1cc2c(Nc3ccc(F)c(Cl)c3)ncnc2cc1C#CC(C)(C)N1CCN(C)CC1,1.31,2.82 µM
CSC1=Nc2c(c(C)c(-c3ccccc3)n2COC(CO)CO)C2=NC(=O)CC(C)N12 (centres undefined),> 100,> 100 µM
NCCCN=c1ccc2c3c1c(O)c1c(O)ccc(=O)c1c3[nH]n2CCNCCO,0.723,11.4 µM and 5.28 µM
C=C1C[C@@H]2O[C@H]3[C@H]4[C@@H](CC[C@@](C)(OC(=O)CCC)[C@H]42)[C@@H](C)C(=O)O[C@@]3(C)CC[C@H]1OO,> 100,> 100 µM

# Tested on: CAKI-1 renal
# Assay: growth of human tumour cells (NCI), 48 h
Compound,GI50,TGI
CCOC(=O)c1c(CN2CCN(C)CC2)nc2ccc(Cl)cc2c1-c1ccccc1,2.95 µM,13.6 µM
COc1ccccc1NC(=O)C1=C(C)NC(C)=C(C(=O)Nc2ccccc2OC)C1c1ccco1,–,> 24.1 µM
Cc1ccc(OC(=O)N2C/C(=C\c3ccccc3)C(=O)/C(=C/c3ccccc3)C2)cc1,–,> 100 µM
CCOc1ccc2cc(-c3nn(CC4CCNCC4)c4ncnc(N)c34)ccc2c1,19.2 µM,60 µM
O=c1oc2c3ccc4ccccc4c3n(CCN3CCCCC3)c2c2ccccc12,–,> 100 µM
O=c1cccc(Cl)[nH]1,–,> 100 µM
COc1ccccc1C(=O)N(Cc1ccccc1)c1ccc(Cl)c(C(=O)OC(C)C)c1,–,71.1 µM
OCCN(CO)CO,–,> 100 µM
CN1CC[C@H](c2c(O)cc(O)c3c(=O)cc(-c4ccccc4Cl)oc23)[C@H](O)C1,–,> 10 µM
COc1cccc(-c2nc3sccn3c2-c2ccnc(NCCCNS(=O)(=O)c3ccccc3)c2)c1,2.81 µM,> 100 µM
CC1OC(OC2C(O)C(O)C(O)C(O)C2O)C(N)CC1N=C(N)C(=O)O (centres undefined),–,> 100 µM
C=CC(=O)Nc1cc2c(Nc3ccc(F)c(Cl)c3)ncnc2cc1C#CC(C)(C)N1CCN(C)CC1,0.973 µM,4.05 µM
CSC1=Nc2c(c(C)c(-c3ccccc3)n2COC(CO)CO)C2=NC(=O)CC(C)N12 (centres undefined),> 100 µM,> 100 µM
NCCCN=c1ccc2c3c1c(O)c1c(O)ccc(=O)c1c3[nH]n2CCNCCO,1.1 µM and 0.528 µM,11.2 µM and 3.84 µM
C=C1C[C@@H]2O[C@H]3[C@H]4[C@@H](CC[C@@](C)(OC(=O)CCC)[C@H]42)[C@@H](C)C(=O)O[C@@]3(C)CC[C@H]1OO,4.8 µM,19.1 µM

# Tested on: EKVX NSCLC
# Assay: growth of human tumour cells (NCI), 48 h
Compound,GI50,TGI
CCOC(=O)c1c(CN2CCN(C)CC2)nc2ccc(Cl)cc2c1-c1ccccc1,8.02 µM,25 µM
COc1ccccc1NC(=O)C1=C(C)NC(C)=C(C(=O)Nc2ccccc2OC)C1c1ccco1,–,> 83.7 µM
Cc1ccc(OC(=O)N2C/C(=C\c3ccccc3)C(=O)/C(=C/c3ccccc3)C2)cc1,–,> 100 µM
CCOc1ccc2cc(-c3nn(CC4CCNCC4)c4ncnc(N)c34)ccc2c1,22.5 µM,> 100 µM
O=c1oc2c3ccc4ccccc4c3n(CCN3CCCCC3)c2c2ccccc12,–,> 100 µM
O=c1cccc(Cl)[nH]1,–,> 100 µM
COc1ccccc1C(=O)N(Cc1ccccc1)c1ccc(Cl)c(C(=O)OC(C)C)c1,–,> 87.8 µM
OCCN(CO)CO,–,> 100 µM
CN1CC[C@H](c2c(O)cc(O)c3c(=O)cc(-c4ccccc4Cl)oc23)[C@H](O)C1,–,0.559 µM
COc1cccc(-c2nc3sccn3c2-c2ccnc(NCCCNS(=O)(=O)c3ccccc3)c2)c1,3.68 µM,> 100 µM
CC1OC(OC2C(O)C(O)C(O)C(O)C2O)C(N)CC1N=C(N)C(=O)O (centres undefined),–,> 100 µM
C=CC(=O)Nc1cc2c(Nc3ccc(F)c(Cl)c3)ncnc2cc1C#CC(C)(C)N1CCN(C)CC1,0.246 µM,4.39 µM
CSC1=Nc2c(c(C)c(-c3ccccc3)n2COC(CO)CO)C2=NC(=O)CC(C)N12 (centres undefined),> 100 µM,> 100 µM
NCCCN=c1ccc2c3c1c(O)c1c(O)ccc(=O)c1c3[nH]n2CCNCCO,6.08 µM and 4.62 µM,17.9 µM and 42 µM
C=C1C[C@@H]2O[C@H]3[C@H]4[C@@H](CC[C@@](C)(OC(=O)CCC)[C@H]42)[C@@H](C)C(=O)O[C@@]3(C)CC[C@H]1OO,27.7 µM,70.8 µM

# Tested on: SW-620 colon
# Assay: growth of human tumour cells (NCI), 48 h
Compound,GI50 [µM],TGI
CCOC(=O)c1c(CN2CCN(C)CC2)nc2ccc(Cl)cc2c1-c1ccccc1,9.35,21.6 µM
COc1ccccc1NC(=O)C1=C(C)NC(C)=C(C(=O)Nc2ccccc2OC)C1c1ccco1,–,> 100 µM
Cc1ccc(OC(=O)N2C/C(=C\c3ccccc3)C(=O)/C(=C/c3ccccc3)C2)cc1,–,35.6 µM
CCOc1ccc2cc(-c3nn(CC4CCNCC4)c4ncnc(N)c34)ccc2c1,15.2,31.4 µM
O=c1oc2c3ccc4ccccc4c3n(CCN3CCCCC3)c2c2ccccc12,–,> 100 µM
O=c1cccc(Cl)[nH]1,–,> 100 µM
COc1ccccc1C(=O)N(Cc1ccccc1)c1ccc(Cl)c(C(=O)OC(C)C)c1,–,> 100 µM
OCCN(CO)CO,–,> 100 µM
CN1CC[C@H](c2c(O)cc(O)c3c(=O)cc(-c4ccccc4Cl)oc23)[C@H](O)C1,0.0572,> 10 µM
COc1cccc(-c2nc3sccn3c2-c2ccnc(NCCCNS(=O)(=O)c3ccccc3)c2)c1,3.81,> 100 µM
CC1OC(OC2C(O)C(O)C(O)C(O)C2O)C(N)CC1N=C(N)C(=O)O (centres undefined),–,> 100 µM
C=CC(=O)Nc1cc2c(Nc3ccc(F)c(Cl)c3)ncnc2cc1C#CC(C)(C)N1CCN(C)CC1,2,4.61 µM
CSC1=Nc2c(c(C)c(-c3ccccc3)n2COC(CO)CO)C2=NC(=O)CC(C)N12 (centres undefined),> 100,> 100 µM
NCCCN=c1ccc2c3c1c(O)c1c(O)ccc(=O)c1c3[nH]n2CCNCCO,–,9.98 µM and 40.5 µM
C=C1C[C@@H]2O[C@H]3[C@H]4[C@@H](CC[C@@](C)(OC(=O)CCC)[C@H]42)[C@@H](C)C(=O)O[C@@]3(C)CC[C@H]1OO,19.6,37.1 µM

# Tested on: SN12C renal
# Assay: growth of human tumour cells (NCI), 48 h
Compound,GI50 [µM],TGI [µM]
CCOC(=O)c1c(CN2CCN(C)CC2)nc2ccc(Cl)cc2c1-c1ccccc1,11.6,25.9
